Results from US20080255252A1, “Infectious Aetiology of Prostatic Disease and Methods to Identify Causative Agents” (Tissugen Pty. Ltd., priority 2004, published 2008).

System: P. acnes Group 1, 2 and 3 isolates
Assay: Growth of P. acnes isolates on semi-selective Brain Heart Infusion agar containing antibiotics
Assay type: cell-based, Propionibacterium acnes
Description: Brain Heart Infusion Agar (Oxoid Australia Ltd) was prepared containing 0.5% Tween 80 and adjusted to a pH of 6.0 using hydrochloric acid prior to autoclaving. […] Both antibiotics were prepared freshly immediately prior to use, and the agar plates were incubated at 37° C. for 24 hrs to ensure sterility then stored at 4° C. and used within 3 weeks of preparation.
Inclusion of gentamicin as a selective agent and Tween 80 as a growth stimulant for P. acnes was previously discussed by Kishishita (1980).

Question: gentamicin was tested. Which “growth of some strains of P. acnes Groups 2 and 3” value (at 6 μg/mL furazolidone and 4 μg/mL gentamicin in the semi-selective medium) did it give?
Answer: noticeable growth inhibition

Question: What about the “maximal concentration that allowed reasonable growth” value (semi-selective agar, after 7 days of anaerobic incubation) of the same substance?
Answer: 4 µg/mL
